Test results as given in patent US20030087881A1, “Irreversible inhibitors of tyrosine kinases” (priority 1997, published 2003).

How the values were obtained:
[1] = test system: A431 human epidermoid carcinoma cells; settings: 2 μM compound for 1 or 2 hours, washed free, EGF stimulation
Protocol: (§1) Extracts were made by lysing the monolayers in 0.2 mL of boiling Laemlli buffer (2% sodium dodecyl sulfate, 5% beta-mercaptoethanol, 10% glycerol and 50 mM tris[hydroxymethyl]aminomethane (Tris), pH 6.8), and the lysates were heated to 100° C. for 5 minutes. Proteins in the lysate were separated by polyacrylamide gel electrophoresis and electrophoretically transferred to nitrocellulose. The membrane was washed once in 10 mM Tris, pH 7.2, 150 mM NaCl, 0.01% Azide (TNA), and blocked overnight in TNA containing 5% bovine serum albumin and 1% ovalbumin. The membrane was blotted for 2 hours with antiphosphotyrosine antibody (UBI, 1 μg/mL in blocking buffer) and then washed twice in TNA, once in TNA containing 0.05% Tween-20 detergent and 0.05% nonidet P-40 detergent and twice in TNA. […] Band intensities were determined with a Molecular Dynamics laser densitometer.

[2] = test system: A431 human epidermoid carcinoma cells; assay: cells; settings: A-431, read-out: IC50 (nM) A431 Cell Autophosphorylation Assay
Protocol: as §1
Duplicate sets of cells were treated with a range of concentrations of the designated compound to be tested as an inhibitor for 15 minutes. The cells were then stimulated with 100 ng/mL of EGF for 5 minutes and extracts made as described under the Western Blotting Procedure.

[3] = target: Human EGF receptor tyrosine kinase (Homo sapiens, UniProt P00533); settings: read-out: IC50 (nM) EGFr (isolated enzyme assay); isolated enzyme from A431 cells; 10 μM ATP
Sequence of Human EGF receptor tyrosine kinase (P00533 25-1210): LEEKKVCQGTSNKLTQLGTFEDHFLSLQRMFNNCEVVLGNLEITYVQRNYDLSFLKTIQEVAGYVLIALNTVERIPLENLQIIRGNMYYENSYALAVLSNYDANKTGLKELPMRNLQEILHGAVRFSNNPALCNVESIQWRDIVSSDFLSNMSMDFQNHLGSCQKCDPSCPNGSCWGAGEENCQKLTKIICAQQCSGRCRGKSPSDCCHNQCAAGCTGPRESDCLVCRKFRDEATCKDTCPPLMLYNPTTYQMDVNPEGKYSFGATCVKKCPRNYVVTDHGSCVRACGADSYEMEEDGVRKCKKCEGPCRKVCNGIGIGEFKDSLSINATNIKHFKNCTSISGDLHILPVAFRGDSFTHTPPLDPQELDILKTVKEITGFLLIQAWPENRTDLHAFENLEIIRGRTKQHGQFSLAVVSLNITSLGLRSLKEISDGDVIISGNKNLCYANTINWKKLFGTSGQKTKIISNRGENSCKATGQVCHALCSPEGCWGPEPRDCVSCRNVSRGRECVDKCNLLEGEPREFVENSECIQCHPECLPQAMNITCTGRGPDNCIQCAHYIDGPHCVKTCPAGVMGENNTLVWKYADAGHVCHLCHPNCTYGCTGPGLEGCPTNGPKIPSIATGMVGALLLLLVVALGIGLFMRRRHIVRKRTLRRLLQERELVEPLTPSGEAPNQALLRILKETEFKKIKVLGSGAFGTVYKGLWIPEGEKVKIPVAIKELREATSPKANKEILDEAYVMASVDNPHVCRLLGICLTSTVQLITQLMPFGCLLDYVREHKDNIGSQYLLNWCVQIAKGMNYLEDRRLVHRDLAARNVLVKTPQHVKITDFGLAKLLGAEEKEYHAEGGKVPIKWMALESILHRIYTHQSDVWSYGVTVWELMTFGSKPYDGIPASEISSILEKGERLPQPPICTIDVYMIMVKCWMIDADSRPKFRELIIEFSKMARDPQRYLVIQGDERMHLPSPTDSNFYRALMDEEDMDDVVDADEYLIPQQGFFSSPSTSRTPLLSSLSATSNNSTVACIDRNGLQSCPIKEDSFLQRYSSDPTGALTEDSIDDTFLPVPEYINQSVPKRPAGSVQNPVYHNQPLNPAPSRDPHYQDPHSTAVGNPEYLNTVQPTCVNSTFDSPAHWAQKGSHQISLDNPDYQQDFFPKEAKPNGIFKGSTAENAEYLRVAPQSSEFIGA
Protocol: Human EGF receptor tyrosine kinase was isolated from A431 human epidermoid carcinoma cells by the following method. Cells were grown in roller bottles in dMEM/F12 media (Gibco/BRL) containing 10% fetal calf serum. Approximately 10^9 cells were lysed in 2 volumes of buffer containing 20mM N-[2-hydroxyethyl]piperazine-N′-[2-ethane sulfonic acid](Hepes), pH 7.4, 5 mM ethylene glycol-bis(β-aminoethyl ether) N,N,N′,N′-tetraacetic acid (EGTA), 1% Triton X-100, 10% glycerol, 0.1 mM sodium orthovanadate, 5 mM sodium fluoride, 4 mM pyrophosphate, 4 mM benzamide, 1 mM dithiothreitol (DTT), 80 μg/mL aprotinin, 40 μg/mL leupeptin, and 1 mM phenylmethyl sulfonyl fluoride (PMSF). After centrifugation at 25,000×g for 10 minutes, the supernatant was applied to a fast Q sepharose column (Pharmacia Biotech., Inc., Piscataway, N.J.) and eluted with a linear gradient from 0.1 M NaCl to 0.4 M NaCl in 50 mM Hepes, 10% glycerol, pH 7.4. Enzyme active fractions were pooled, divided into aliquots, and stored at −100° C.
Enzyme assays for IC50determinations were performed in 96-well filter plates (Millipore MADVN6550, Millipore, Bedford, Mass.). […] The wells are then washed 5 times with 0.2 mL of 10% TCA and ^32P incorporation determined with a Wallac beta plate counter (Wallac, Inc., Gaithersburg, Pa.).

C=CC(=O)Nc1ccc2ncnc(N3CCc4ccc(Br)cc43)c2c1 [Example 1, N-[4-(6-Bromo-2,3-dihydroindol-1-yl)quinazolin-6-yl]acrylamide]
Irreversibility Test [1]: yes, irreversible | IC50 [2]: 9.9 nM | melting point: 214 to 216 °C | IC50 [3]: 0.4 nM
